Drawing on BindingDB's records for doi:10.1016/j.bmc.2016.01.042 (University of California, 2016), this text covers Ki for one compound.

This test concerns the target T1, Polyunsaturated fatty acid lipoxygenase ALOX15 (Homo sapiens, UniProt P16050).
T1 sequence (P16050 whole entry): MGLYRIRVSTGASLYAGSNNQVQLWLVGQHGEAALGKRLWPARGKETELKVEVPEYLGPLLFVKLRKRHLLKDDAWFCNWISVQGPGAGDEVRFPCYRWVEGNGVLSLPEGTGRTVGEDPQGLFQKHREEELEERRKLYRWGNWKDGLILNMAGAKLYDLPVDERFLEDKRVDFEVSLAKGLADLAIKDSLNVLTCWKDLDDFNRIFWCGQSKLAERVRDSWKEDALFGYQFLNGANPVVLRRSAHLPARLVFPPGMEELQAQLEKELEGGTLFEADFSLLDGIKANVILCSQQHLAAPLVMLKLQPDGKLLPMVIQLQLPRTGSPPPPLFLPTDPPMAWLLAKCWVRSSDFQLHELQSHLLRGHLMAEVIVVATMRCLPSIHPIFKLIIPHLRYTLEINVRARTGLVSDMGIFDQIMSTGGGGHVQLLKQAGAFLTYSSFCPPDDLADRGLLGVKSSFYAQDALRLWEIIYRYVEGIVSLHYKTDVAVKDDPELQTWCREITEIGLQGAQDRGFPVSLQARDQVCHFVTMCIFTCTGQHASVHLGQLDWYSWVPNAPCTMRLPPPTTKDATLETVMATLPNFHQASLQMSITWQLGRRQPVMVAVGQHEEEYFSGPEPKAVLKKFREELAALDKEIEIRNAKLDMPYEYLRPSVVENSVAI
Briefly: Competitive inhibition of N-terminal His6-tagged human 12/15-LOX using arachidonic acid as substrate by Dixon plot analysis.

By Ki is commonly meant a dissociation constant, usually derived from enzyme kinetics or from competition with a known ligand.

`Cc1ccc(O)c(-c2cc(-c3ccccc3C)[nH]n2)c1` [4-methyl-2-[5-(2-methylphenyl)-1H-pyrazol-3-yl]phenol] displayed a Ki of 1000 nM.
